Molecular target: T1, PlzD
T1 construct: His-tagged PlzD (aot11_00285, strain ATCC27562), expressed in E. coli BL21(DE3)
Experiment: micro-equilibrium dialysis with UV absorbance at […] nm, purified protein
Format: binding, Vibrio vulnificus

With `Nc1nc2c(ncn2[C@@H]2O[C@@H]3COP(=O)(O)O[C@H]4[C@@H](O)[C@H](n5cnc6c(=O)[nH]c(N)nc65)O[C@@H]4COP(=O)(O)O[C@H]3[C@H]2O)c(=O)[nH]1` [c-di-GMP] the Kd was 3.9 µM.

Source: publication PMC10653909, “PlzD modifies Vibrio vulnificus foraging behavior and virulence in response to elevated c-di-GMP” (mBio, 2023)
